According to patent publication US20050048508A1, “Trehalose receptor and method for detecting trehalose with the same” (KABUSHIKI KAISHA HAYASHIBARA SEIBUTSU KAGAKU KENKYUJO, priority 2002, published 2005):

What was measured:
[1] = test system: G protein α-subunits (α15 and α16/Z chimeric protein), no sweet taste receptor; test: Intracellular calcium ion assay, 293 cells expressing G protein α-subunits without sweet taste receptor; type: cell-based, Mouse, Human; settings: 293 cells: G protein α-subunits only, no T1R1/T1R2/T1R3; 0.67 ml of 1 M saccharide solution added to 2 ml cell suspension
Method: (§1) The coexpression vector for the G protein α-subunit α15 and the G protein α16/Z chimeric protein (hereinafter designated as “G protein α-subunits”) obtained in Example 1-3 was gene transferred to 293 cells, RCB 1637, a human embryonic kidney cell line, available from the Riken Bioresource Center, Ibaraki, Japan, by conventional lipofection. The gene transferred cells were suspended in Dulbecco's Modified Eagle's Medium (D-MEM) supplemented with 1 mg/L of “PUROMYCIN”, a trade mane of puromycin commercialized by Edge Biosystems, MD, USA, and 10% (v/v) of fetal calf serum to give a cell density of 2×10^6 cells/ml and cultured in a plastic petri dish for cell culture. […]
(§2) The captioned reactivity test was conducted according to a conventional intracellular calcium ion assay: 293 Cells prepared in Example 3, capable of coexpressing the G protein α-subunits and the sweet taste receptor(s), were cultured in a plastic petri dish for cell culture until reaching its confluent phase. […] Two milliliters of the resultant cell suspension was injected into a glass cuvette, commercialized by Hitachi, Ltd., Tokyo, Japan, and analyzed on “HITACHI 650-40”, a fluorescence spectrophotometer commercialized by Hitachi, Ltd., Tokyo, Japan. […]

[2] = biological target: T1, T1R1 with G protein α-subunits (α15 and α16/Z chimeric protein) (Mus musculus, UniProt Q99PG6); test: Intracellular calcium ion assay, 293 cells coexpressing G protein α-subunits and T1R1; type: cell-based; settings: 293 cells: T1R1 + G protein α-subunits; 0.67 ml of 1 M saccharide solution added to 2 ml cell suspension; FLUO-4 AM
T1 construct: expressed in transfected cells; host or cells: 293 cells, RCB 1637 (human embryonic kidney)
T1 sequence (Q99PG6 20-842 L120P/N244D/D281A/N309Y/P311T/S314P/H418Y): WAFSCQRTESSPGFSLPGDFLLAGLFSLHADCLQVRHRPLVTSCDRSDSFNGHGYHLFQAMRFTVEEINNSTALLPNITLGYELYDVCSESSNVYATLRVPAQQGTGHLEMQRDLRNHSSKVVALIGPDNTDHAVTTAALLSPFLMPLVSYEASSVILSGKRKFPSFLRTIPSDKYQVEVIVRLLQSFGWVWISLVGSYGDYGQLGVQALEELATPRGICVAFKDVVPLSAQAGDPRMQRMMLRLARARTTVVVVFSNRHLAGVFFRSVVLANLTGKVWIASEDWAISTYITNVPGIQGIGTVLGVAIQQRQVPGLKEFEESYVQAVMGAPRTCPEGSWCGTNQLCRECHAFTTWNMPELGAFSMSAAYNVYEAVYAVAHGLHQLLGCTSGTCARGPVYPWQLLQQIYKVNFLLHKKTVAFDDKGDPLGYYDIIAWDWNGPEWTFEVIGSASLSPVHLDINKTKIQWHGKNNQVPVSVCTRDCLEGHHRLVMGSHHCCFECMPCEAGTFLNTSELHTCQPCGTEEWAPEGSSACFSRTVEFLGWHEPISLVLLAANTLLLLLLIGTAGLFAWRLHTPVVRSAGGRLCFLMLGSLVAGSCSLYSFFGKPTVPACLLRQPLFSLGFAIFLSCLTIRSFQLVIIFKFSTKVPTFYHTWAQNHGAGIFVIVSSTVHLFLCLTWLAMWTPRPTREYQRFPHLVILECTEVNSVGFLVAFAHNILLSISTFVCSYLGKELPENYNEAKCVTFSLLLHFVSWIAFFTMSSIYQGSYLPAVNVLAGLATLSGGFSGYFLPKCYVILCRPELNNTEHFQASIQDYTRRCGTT
Method: as §1, §2

Influx of calcium ion [2]	SMILES	Influx of calcium ion [1]
Negative	OC[C@H]1O[C@@](CO)(O[C@H]2O[C@H](CO)[C@@H](O)[C@H](O)[C@H]2O)[C@@H](O)[C@@H]1O [Sucrose, reference compound]	Negative
Negative	OC[C@H]1O[C@H](O[C@H]2O[C@H](CO)[C@@H](O)[C@H](O)[C@H]2O)[C@H](O)[C@@H](O)[C@@H]1O [Trehalose]	Negative
